pEC50: −log10 of the molar value. Where a name gives a salt, the structure may show the parent alone.
molecular target: T1, human 5-HT4(a) (Homo sapiens, UniProt Q13639); assay: Evaluation of agonistic activity in CHO-K1 cells expressing human 5-HT4(a) (GeneBlAzer HTR4-CRE-bla CHO-K1, beta-lactamase reporter); format: cell-based; settings: CHO-K1 cells stably expressing human 5-HT4(a)
T1 construct: host or cells: GeneBlAzer HTR4-CRE-bla CHO-K1 cells
Summary of the method: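 Agonism read as CRE-driven β-lactamase activity: emission ratio 465/535 nm (excitation 410 nm) after 2 h substrate loading. Preceded by 5 h compound treatment, 8 concentrations, 1% DMSO in the added solution, of overnight-plated reporter CHO-K1 cells; EC50 by non-linear regression.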

T1 sequence (Q13639 1-387 isoform Q13639-2): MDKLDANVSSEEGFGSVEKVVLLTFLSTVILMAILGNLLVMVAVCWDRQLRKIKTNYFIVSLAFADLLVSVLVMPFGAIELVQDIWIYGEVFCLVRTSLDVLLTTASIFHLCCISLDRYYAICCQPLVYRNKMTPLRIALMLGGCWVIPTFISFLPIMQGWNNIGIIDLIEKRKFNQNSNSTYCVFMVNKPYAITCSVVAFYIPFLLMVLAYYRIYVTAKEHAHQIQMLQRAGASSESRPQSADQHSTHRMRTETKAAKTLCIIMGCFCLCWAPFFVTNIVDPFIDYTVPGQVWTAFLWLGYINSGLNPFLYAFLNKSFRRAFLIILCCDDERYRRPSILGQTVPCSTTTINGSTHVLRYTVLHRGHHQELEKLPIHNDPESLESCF

Row | Structure (SMILES) | pEC50
1 | CCCc1cc(N2CC[C@H](NC(C)=O)C2)nc(Nc2cccc([N+](=O)[O-])c2)n1 [Example 247] | 10.92
2 | CCCc1cc(N2CC[C@H](NC(C)=O)C2)nc(Nc2ccc(F)c([N+](=O)[O-])c2)n1 [Example 248, (S)—N-{1-[2-(4-fluoro-3-nitrophenylamino)-6-propylpyrimidin-4-yl]pyrrolidin-3-yl}acetamide] | 10.80
3 | CCCc1cc(N2CC[C@H](NC(C)=O)C2)nc(Nc2ccc(C)c([N+](=O)[O-])c2)n1 [Example 249, (S)—N-{1-[2-(4-methyl-3-nitrophenylamino)-6-propylpyrimidin-4-yl]pyrrolidin-3-yl}acetamide] | 11.74
4 | CCCc1cc(N2CC[C@H](NC(C)=O)C2)nc(Nc2ccc(F)c(C#N)c2)n1 [Example 251] | 11.00
5 | CCCc1cc(N2CC[C@H](NC(C)=O)C2)nc(Nc2ccc(C)c(C#N)c2)n1 [Example 252, (S)—N-{1-[2-(3-cyano-4-methylphenylamino)-6-propylpyrimidin-4-yl]pyrrolidin-3-yl}acetamide] | 11.28
6 | CCCc1cc(N2CC[C@H](NC(C)=O)C2)nc(Nc2ccc(F)c(C(F)(F)F)c2)n1 [Example 253] | 10.85
7 | CCCc1cc(N2CC[C@H](NC(C)=O)C2)nc(Nc2ccc(N)c([N+](=O)[O-])c2)n1 [Example 254, (S)—N-{1-[2-(4-amino-3-nitrophenylamino)-6-propylpyrimidin-4-yl]pyrrolidin-3-yl}acetamide] | 11.82
8 | CCCc1cc(N2CC[C@H](NC(C)=O)C2)nc(Nc2cc(Cl)ccc2C)n1 [Example 255] | 10.64
9 | CCCc1cc(N2CC[C@H](NC(C)=O)C2)nc(Nc2ccc(N)c(C#N)c2)n1 [Example 260] | 10.82
10 | CCCc1cc(N2CC[C@H](NC(C)=O)C2)nc(Nc2ccc(N)c(C(F)(F)F)c2)n1 [Example 261] | 11.15
11 | CCCc1cc(N2CC[C@H](NC(C)=O)C2)nc(Nc2cc(N)cc(C#N)c2)n1 [Example 262] | 11.41
12 | CCCc1cc(N2CC[C@H](NC(C)=O)C2)nc(Nc2cc(N)cc(C(F)(F)F)c2)n1 [Example 268] | 10.96
13 | CCCc1cc(N2CC[C@H](NC(C)=O)C2)nc(Nc2ccc(N)cc2)n1 [Example 270] | 9.69
14 | CCCc1cc(N2CC[C@H](NC(C)=O)C2)nc(Nc2ccc(C)c(O)c2)n1 [Example 274] | 10.06
15 | CCCc1cc(N2CC[C@H](NC(C)=O)C2)nc(Nc2ccc(C)c(OC)c2)n1 [Example 279] | 10.11
16 | CCCc1cc(N2CC[C@H](NC(C)=O)C2)nc(Nc2ccc(C)c(C(F)(F)F)c2)n1 [Example 280] | 10.59
17 | CCCc1cc(N2CC[C@H](NC(C)=O)C2)nc(Nc2ccc(C)c(C)c2)n1 [Example 281] | 9.71

Row | Structure (SMILES) | pEC50
18 | CCCc1cc(N2CC[C@H](NC(C)=O)C2)nc(Nc2ccc(C)c(F)c2)n1 [Example 282] | 9.99
19 | CCCc1cc(N2CC[C@H](NC(C)=O)C2)nc(Nc2ccc(N)c([N+](=O)[O-])c2)n1 [Example 286, (S)—N-{1-[2-(4-amino-3-nitrophenylamino)-6-propylpyrimidin-4-yl]pyrrolidin-3-yl}acetamide hydrochloride] | 11.33
20 | CCCc1cc(N2CC[C@H](NC(C)=O)C2)nc(Nc2ccc(OC)c(N)c2)n1 [Example 289] | 10.21
21 | CCCc1cc(N2CC[C@H](NC(C)=O)C2)nc(Nc2ccc(Cl)c(N)c2)n1 [Example 290] | 10.89
22 | CCCc1cc(N2CC[C@H](NC(C)=O)C2)nc(Nc2ccc(F)c(N)c2)n1 [Example 291] | 11.13
23 | CCCc1cc(N2CC[C@H](NC(C)=O)C2)nc(Nc2ccc(C)c(N)c2)n1 [Example 292, (S)—N-{1-[2-(3-amino-4-methylphenylamino)-6-propylpyrimidin-4-yl]pyrrolidin-3-yl}acetamide] | 10.42
24 | CCCc1cc(N2CCC(NC(C)=O)C2)nc(Nc2ccc(N)c([N+](=O)[O-])c2)n1 (stereo not shown) [Example 293] | 11.37
25 | CCCc1cc(N2CCC(NC(C)=O)C2)nc(Nc2cccc(C#N)c2)n1 (stereo not shown) [Example 294, N-{1-[2-(3-cyanophenylamino)-6-propylpyrimidin-4-yl]pyrrolidin-3-yl}acetamide] | 10.12
26 | CCCc1cc(N2CCC(NC(C)=O)C2)nc(Nc2cccc([N+](=O)[O-])c2)n1 (stereo not shown) [Example 295, N-{1-[2-(3-nitrophenylamino)-6-propylpyrimidin-4-yl]pyrrolidin-3-yl}acetamide] | 10.32
27 | CCCc1cc(N2CCC(NC(C)=O)C2)nc(Nc2ccc(F)c([N+](=O)[O-])c2)n1 (stereo not shown) [Example 296] | 10.41
28 | CCCc1cc(N2CCC(NC(C)=O)C2)nc(Nc2ccc(Cl)c([N+](=O)[O-])c2)n1 (stereo not shown) [Example 297, N-{1-[2-(4-chloro-3-nitrophenylamino)-6-propylpyrimidin-4-yl]pyrrolidin-3-yl}acetamide] | 10.55
29 | CCCc1cc(N2CCC(NC(C)=O)C2)nc(Nc2cccc(C(F)(F)F)c2)n1 (stereo not shown) [Example 301] | 9.96
30 | CCCc1cc(N2CCC(NC(C)=O)C2)nc(Nc2cccc(Cl)c2)n1 (stereo not shown) [Example 302] | 9.38
31 | CCCc1cc(N2CCC(NC(C)=O)C2)nc(Nc2cc(Cl)ccc2C)n1 (stereo not shown) [Example 303] | 9.92
32 | CCCc1cc(N2CCC(NC(C)=O)C2)nc(Nc2ccc(C)c(Cl)c2)n1 (stereo not shown) [Example 304] | 10.15
33 | CCCc1cc(N2CCC(NC(C)=O)C2)nc(Nc2cccc(SC)c2)n1 (stereo not shown) [Example 305] | 9.74

Further lines, results first:

Row | pEC50 | Structure (SMILES)
34 | 9.62 | CCCc1cc(N2CCC(NC(C)=O)C2)nc(Nc2ccc3[nH]c(C(F)(F)F)nc3c2)n1 (stereo not shown) [Example 307]
35 | 10.12 | CCCc1cc(N2CCC(NC(C)=O)C2)nc(Nc2ccc3c(C)cc(=O)oc3c2)n1 (stereo not shown) [Example 309]
36 | 9.43 | CCCc1cc(N2CCC(NC(C)=O)C2)nc(Nc2cnc3ccccc3c2)n1 (stereo not shown) [Example 310]
37 | 10.72 | CCCc1cc(N2CCC(NC(C)=O)C2)nc(Nc2ccc(N)c(C#N)c2)n1 (stereo not shown) [Example 311]
38 | 10.64 | CCCc1cc(N2CCC(NC(C)=O)C2)nc(Nc2ccc(F)c(N)c2)n1 (stereo not shown) [Example 312]
39 | 10.11 | CCCc1cc(N2CCC[C@H]2C)nc(Nc2ccc(Cl)c([N+](=O)[O-])c2)n1 [Example 313, (R)—N-(4-chloro-3-nitrophenyl)-4-(2-methylpyrrolidin-1-yl)-6-propylpyrimidin-2-amine]
40 | 9.74 | CCCc1cc(N2CCC[C@H]2C)nc(Nc2cccc(SC)c2)n1 [Example 314]
41 | 10.55 | CCCc1cc(N2CCC[C@H]2C)nc(Nc2ccc3cc[nH]c3c2)n1 [Example 315]
42 | 9.68 | CCCc1cc(N2CCC[C@H]2C)nc(Nc2cccc(C(F)(F)F)c2)n1 [Example 316]
43 | 9.85 | CCCc1cc(N2CCC[C@H]2C)nc(Nc2ccc3c(C)cc(=O)oc3c2)n1 [Example 317]
44 | 9.80 | CCCc1cc(N2CCC[C@H]2C)nc(Nc2ccc(C)c(Cl)c2)n1 [Example 318]
45 | 10.10 | CCCc1cc(N2CCC[C@H]2C)nc(Nc2cccc([N+](=O)[O-])c2)n1 [Example 319]
46 | 10.39 | CCCc1cc(N2CCC[C@H]2C)nc(Nc2ccc(F)c([N+](=O)[O-])c2)n1 [Example 320, (R)—N-(4-fluoro-3-nitrophenyl)-4-(2-methylpyrrolidin-1-yl)-6-propylpyrimidin-2-amine]
47 | 10.36 | CCCc1cc(N2CCC[C@H]2C)nc(Nc2ccc(C)c([N+](=O)[O-])c2)n1 [Example 321, (R)—N-(4-methyl-3-nitrophenyl)-4-(2-methylpyrrolidin-1-yl)-6-propylpyrimidin-2-amine]
48 | 9.82 | CCCc1cc(N2CCC[C@H]2C)nc(Nc2ccc(F)c(C(F)(F)F)c2)n1 [Example 322]
49 | 10.57 | CCCc1cc(N2CCC[C@H]2C)nc(Nc2ccc(N)c(C(F)(F)F)c2)n1 [Example 323, (R)—N^1-[4-(2-methylpyrrolidin-1-yl)-6-propylpyrimidin-2-yl]-3-(trifluoromethyl)benzene-1,4-diamine]

Row | pEC50 | Structure (SMILES)
50 | 10.07 | CCCc1cc(N2CCC[C@H]2C)nc(Nc2ccc(F)c(C#N)c2)n1 [Example 325]
51 | 10.55 | CCCc1cc(N2CCC[C@H]2C)nc(Nc2ccc(C)c(C#N)c2)n1 [Example 326]
52 | 10.60 | CCCc1cc(N2CCC[C@H]2C)nc(Nc2ccc(N)c(C#N)c2)n1 [Example 327]
53 | 10.77 | CCCc1cc(N2CCC[C@H]2C)nc(Nc2ccc(N)c([N+](=O)[O-])c2)n1 [Example 328, (R)—N^1-[4-(2-methylpyrrolidin-1-yl)-6-propylpyrimidin-2-yl]-3-nitrobenzene-1,4-diamine]
54 | 9.74 | CCCc1cc(N2CCC[C@H]2C)nc(Nc2ccc3c(c2)N(C(C)=O)CC3)n1 [Example 329]
55 | 9.86 | CCCc1cc(N2CCC[C@H]2C)nc(Nc2ccc(OC)c(N)c2)n1 [Example 331]
56 | 10.34 | CCCc1cc(N2CCC[C@H]2C)nc(Nc2ccc(Cl)c(N)c2)n1 [Example 332]
57 | 10.62 | CCCc1cc(N2CCC[C@H]2C)nc(Nc2ccc(F)c(N)c2)n1 [Example 333]
58 | 10.07 | CCCc1cc(N2CCC[C@H]2C)nc(Nc2ccc(C)c(N)c2)n1 [Example 334]
59 | 11.59 | CCCCc1cc(N2CC[C@H](NC(C)=O)C2)nc(Nc2ccc(N)c([N+](=O)[O-])c2)n1 [Example 337]
60 | 11.49 | CCCCc1cc(N2CC[C@H](NC)C2)nc(Nc2ccc(N)c([N+](=O)[O-])c2)n1 [Example 338]
61 | 11.26 | CCCc1cc(N2CC[C@H](N)C2)nc(Nc2cc(N)cc(C(F)(F)F)c2)n1 [Example 342]
62 | 11.04 | CCCc1cc(N2CC[C@H](N)C2)nc(Nc2ccc(Cl)c([N+](=O)[O-])c2)n1 [Example 344, (S)-4-(3-aminopyrrolidin-1-yl)-N-(4-chloro-3-nitrophenyl)-6-propylpyrimidin-2-amine dihydrochloride]
63 | 10.21 | CCCc1cc(N2CC[C@H](N)C2)nc(Nc2cccc(SC)c2)n1 [Example 345, (S)-4-(3-aminopyrrolidin-1-yl)-N-[3-(methylthio)phenyl]-6-propylpyrimidin-2-amine dihydrochloride]
64 | 10.85 | CCCc1cc(N2CC[C@H](N)C2)nc(Nc2ccc3cc[nH]c3c2)n1 [Example 346]
